Columns and labels:
[1] = 32-day stability of stock solutions stored at −80 °C; format: physicochemical; details: stock solution stored at -80 °C; peak area Day 32 vs Day 1
Description: Stability of stock solutions
All stock solutions of antibiotics and their corresponding stable-isotope variants were measured prior to cold storage at -80 °C and tested at 32 days later.
Stability was determined by comparing the peak area of each drug between its Day 1 and Day 32 measurement. Acceptable criteria for stability was met if the […]

[2] = Autosampler stability at 4 °C of extracted antibiotic-spiked plasma/CAMHB samples; details: for Mean accuracy (%), Table S8 / Mean accuracy (%), Table S10: CAMHB extracted samples; for Mean accuracy (%), Table S8 / Mean accuracy (%), Table S7: 7 h autosampler 4 °C; for Mean accuracy (%), Table S10 / Mean accuracy (%), Table S9: 15 h autosampler 4 °C; for Mean accuracy (%), Table S7 / Mean accuracy (%), Table S9: plasma extracted samples
Description: (§1) The stability of fosfomycin in combination with other antibiotics in plasma/CAMHB was evaluated under various operational conditions. Spiked plasma/CAMHB samples were evaluated at 7 h and 15 h in the autosampler at 4 °C. Long-term stability was evaluated up to 4 weeks of antibiotic-spiked plasma/CAMHB samples at LQC, MQC, and HQC concentrations stored at −30 °C and −80 °C.

[3] = Long-term storage stability of antibiotics in combination with fosfomycin spiked in plasma/CAMHB (−30 °C, −80 °C); format: physicochemical; details: for Stability verdict (within ±15% of nominal): CAMHB samples stored at −30 °C; for Mean accuracy (%), Table S15 / Mean accuracy (%), Table S17 / Mean accuracy (%), Table S16 / Mean accuracy (%), Table S18: CAMHB; for Mean accuracy (%), Table S15 / Mean accuracy (%), Table S17 / Mean accuracy (%), Table S16 / Mean accuracy (%), Table S18 / Mean accuracy (%), Table S11 / Mean accuracy (%), Table S13 / Mean accuracy (%), Table S12 / Mean accuracy (%), Table S14: combination with fosfomycin; for Mean accuracy (%), Table S15 / Mean accuracy (%), Table S11: 2 weeks at -30 °C; for Mean accuracy (%), Table S17 / Mean accuracy (%), Table S13: 2 weeks at -80 °C; for Mean accuracy (%), Table S16 / Mean accuracy (%), Table S12: 4 weeks at -30 °C; for Mean accuracy (%), Table S18 / Mean accuracy (%), Table S14: 4 weeks at -80 °C; for Mean accuracy (%), Table S11 / Mean accuracy (%), Table S13 / Mean accuracy (%), Table S12 / Mean accuracy (%), Table S14: plasma
Description: as §1

[4] = HQC: nominal mg/L CAZ 150, FEP 200, PIP 250, ATM 300, MEM 200, DOR 175, LVX 30, CEFT 250, TZB 87.5, TGC 20, AVI 30, FOF 1000
[5] = LQC: nominal 1 mg/L (levofloxacin, avibactam 0.5; fosfomycin 10)
[6] = MQC: nominal mg/L CAZ 75, FEP 100, PIP 150, ATM 150, MEM 100, DOR 87.5, LVX 15, CEFT 125, TZB 43.75, TGC 10, AVI 15, FOF 500

Row | Structure (SMILES) | 32 Day Stability (%) [1] | Mean accuracy (%), Table S8 ([2]; HQC (nominal as E15)) | Mean accuracy (%), Table S8 ([2]; LQC (nominal as E13)) | Mean accuracy (%), Table S8 ([2]; MQC (nominal as E14)) | Mean accuracy (%), Table S10 ([2]; HQC (nominal as E15)) | Mean accuracy (%), Table S10 ([2]; LQC (nominal as E13)) | Mean accuracy (%), Table S10 ([2]; MQC (nominal as E14)) | Mean accuracy (%), Table S7 [2, 4] | Mean accuracy (%), Table S7 [2, 5] | Mean accuracy (%), Table S7 [2, 6] | Mean accuracy (%), Table S9 ([2]; HQC (nominal as E15)) | Mean accuracy (%), Table S9 ([2]; LQC (nominal as E13)) | Mean accuracy (%), Table S9 ([2]; MQC (nominal as E14)) | Stability verdict (within ±15% of nominal) ([3]; 4 weeks) | Mean accuracy (%), Table S15 ([3]; HQC (nominal as E15)) | Mean accuracy (%), Table S15 ([3]; LQC (nominal as E13)) | Mean accuracy (%), Table S15 ([3]; MQC (nominal as E14)) | Mean accuracy (%), Table S17 ([3]; HQC (nominal as E15)) | Mean accuracy (%), Table S17 ([3]; LQC (nominal as E13)) | Mean accuracy (%), Table S17 ([3]; MQC (nominal as E14)) | other results
1 | C[C@H]1COc2c(N3CCN(C)CC3)c(F)cc3c(=O)c(C(=O)O)cn1c23 [Levofloxacin, levofloxacin] | 98.42% | 98.8% | 113.0% | 103.4% | 99.5% | 112.8% | 103.9% | 101.3% | 110.7% | 105.2% | 103.6% | 114.0% | 106.1% |  |  |  |  |  |  |  | 
2 | C[C@@H](O)[C@H]1C(=O)N2C(C(=O)O)=C(S[C@@H]3CN[C@H](CNS(N)(=O)=O)C3)[C@H](C)[C@H]12 [Doripenem, doripenem] | 99.13% | 103.1% | 104.8% | 105.2% | 103.0% | 108.0% | 111.3% | 98.9% | 104.0% | 100.7% |  |  |  | instability | 82.4% | 73.1% | 77.1% | 100.1% | 104.0% | 103.9% | Stability verdict (within ±15% of nominal) ([3]; 2 weeks): instability; Mean accuracy (%), Table S16 ([3]; HQC (nominal as E15)): 64.1%; Mean accuracy (%), Table S16 ([3]; LQC (nominal as E13)): 64.6%; Mean accuracy (%), Table S16 ([3]; MQC (nominal as E14)): 60.6%; Mean accuracy (%), Table S18 ([3]; HQC (nominal as E15)): 105.8%; Mean accuracy (%), Table S18 ([3]; LQC (nominal as E13)): 99.1%; Mean accuracy (%), Table S18 ([3]; MQC (nominal as E14)): 104.7%; Mean accuracy (%), Table S11 ([3]; HQC (nominal as E15)): 98.0%; Mean accuracy (%), Table S11 ([3]; LQC (nominal as E13)): 91.0%; Mean accuracy (%), Table S11 ([3]; MQC (nominal as E14)): 97.0%; Mean accuracy (%), Table S13 ([3]; HQC (nominal as E15)): 98.3%; Mean accuracy (%), Table S13 ([3]; LQC (nominal as E13)): 100.6%; Mean accuracy (%), Table S13 ([3]; MQC (nominal as E14)): 96.9%; Mean accuracy (%), Table S12 ([3]; HQC (nominal as E15)): 102.4%; Mean accuracy (%), Table S12 ([3]; LQC (nominal as E13)): 100.0%; Mean accuracy (%), Table S12 ([3]; MQC (nominal as E14)): 103.1%; Mean accuracy (%), Table S14 ([3]; HQC (nominal as E15)): 106.3%; Mean accuracy (%), Table S14 ([3]; LQC (nominal as E13)): 99.2%; Mean accuracy (%), Table S14 ([3]; MQC (nominal as E14)): 106.9%
3 | NC(=O)[C@@H]1CC[C@@H]2CN1C(=O)N2OS(=O)(=O)O [Avibactam, avibactam] | 102.63% | 106.4% | 108.8% | 104.2% | 107.5% | 108.3% | 104.9% | 96.2% | 105.4% | 100.7% | 95.6% | 103.4% | 99.3% | instability | 90.4% | 93.7% | 89.1% | 95.3% | 101.2% | 95.4% | Mean accuracy (%), Table S16 ([3]; HQC (nominal as E15)): 80.6%; Mean accuracy (%), Table S16 ([3]; LQC (nominal as E13)): 82.3%; Mean accuracy (%), Table S16 ([3]; MQC (nominal as E14)): 80.6%; Mean accuracy (%), Table S18 ([3]; HQC (nominal as E15)): 98.6%; Mean accuracy (%), Table S18 ([3]; LQC (nominal as E13)): 103.0%; Mean accuracy (%), Table S18 ([3]; MQC (nominal as E14)): 98.2%; Mean accuracy (%), Table S11 ([3]; HQC (nominal as E15)): 93.9%; Mean accuracy (%), Table S11 ([3]; LQC (nominal as E13)): 100.6%; Mean accuracy (%), Table S11 ([3]; MQC (nominal as E14)): 99.4%; Mean accuracy (%), Table S13 ([3]; HQC (nominal as E15)): 95.2%; Mean accuracy (%), Table S13 ([3]; LQC (nominal as E13)): 105.1%; Mean accuracy (%), Table S13 ([3]; MQC (nominal as E14)): 100.4%; Mean accuracy (%), Table S12 ([3]; HQC (nominal as E15)): 87.3%; Mean accuracy (%), Table S12 ([3]; LQC (nominal as E13)): 100.2%; Mean accuracy (%), Table S12 ([3]; MQC (nominal as E14)): 92.6%; Mean accuracy (%), Table S14 ([3]; HQC (nominal as E15)): 92.9%; Mean accuracy (%), Table S14 ([3]; LQC (nominal as E13)): 101.0%; Mean accuracy (%), Table S14 ([3]; MQC (nominal as E14)): 94.5%

From publication PMC8772704, “Quantification of Fosfomycin in Combination with Nine Antibiotics in Human Plasma and Cation-Adjusted Mueller-Hinton II Broth via LCMS” (Antibiotics, 2022)
